Experimental data reported in ChEMBL document CHEMBL1132826, “6-Hydroxy-1,3-dioxin-4-ones as non-peptidic HIV protease inhibitors” (Bioorg Med Chem Lett, 2000).

Assays:
[1] = Ratio of compound cytotoxic concentration (CC50) to that of antiviral activity (EC50); type: functional
[2] = molecular target: Human immunodeficiency virus type 1 protease (Human immunodeficiency virus 1, UniProt Q72874); assay: Compound was evaluated for the inhibitory activity towards HIV protease
MT4 [3] = assay: Compound was evaluated for the antiviral activity in HIV-I IIIB infected MT-4 cells assay; type: functional, cell-based; conditions: Homo sapiens
MT4 [4] = assay: Cytotoxic concentration was measured in HIV-I IIIB infected MT-4 cells assay; type: functional; conditions: Homo sapiens

| Compound | SI [1] | IC50 [2] [µM] | EC50 (MT4 [3]) [µM] | CC50 (MT4 [4]) [µM] |
| --- | --- | --- | --- | --- |
| CCCC1(CCc2ccccc2)OC(=O)C(C(CC)c2cccc(NS(=O)(=O)c3ccc(N)cn3)c2)=C(O)O1 (stereo not given) | <1 | 0.013 | > 70 | 70 |
| CCCC1(CCc2ccccc2)OC(=O)C(C(CC)c2cccc(NS(=O)(=O)c3ccc(C#N)cn3)c2)=C(O)O1 (stereo not given) | 6.77 | 0.003 | 11.4 | 77 |
| CCCC1(CCc2ccccc2)OC(=O)C(C(CC)c2cccc(NS(=O)(=O)c3ccc([N+](=O)[O-])cn3)c2)=C(O)O1 (stereo not given) | <1 | 0.065 | > 14.8 | 14.8 |
| CCCC1(CCc2ccccc2)OC(=O)C(C(CC)c2cccc(NS(=O)(=O)c3ccc(C(F)(F)F)cn3)c2)=C(O)O1 (stereo not given) | 65.69 | 0.01 | 0.96 | 63 |
| CCCC1(CCc2ccccc2)OC(=O)C(C(CC)c2cccc(NS(=O)(=O)c3ccc(C#N)cc3)c2)=C(O)O1 (stereo not given) | <1 | 0.015 | > 66.5 | 66.5 |
| CCCC1(CCc2ccccc2)OC(=O)C(C(CC)c2cccc(NS(=O)(=O)c3ccccn3)c2)=C(O)O1 (stereo not given) | >2.05 | 0.013 | 86.7 | > 178 |
| CCC[C@]1(CCc2ccccc2)OC(=O)C([C@H](CC)c2cccc(NS(=O)(=O)c3ccc(C(F)(F)F)cn3)c2)=C(O)O1 (racemic) | – | 0.05 | – | – |
